# Measurements from PubChem BioAssay AID1259407 (Chemical Carcinogenesis Research Information System (CCRIS), 2018).
# Calls of active or inactive are those of the source. How the calls were made is not given here.
# Tested on: CCRIS mutagenicity, Ames/micronucleus/aberration tests
# Assay: CCRIS mutagenicity studies
# [1] = Test System: AMES SALMONELLA TYPHIMURIUM, Strain/Indicator: TA98, Metabolic Activation: NONE, Method: PREINCUBATION
# [2] = Test System: AMES SALMONELLA TYPHIMURIUM, Strain/Indicator: TA98, Metabolic Activation: RAT, LIVER, S-9, AROCLOR 1254, Method: PREINCUBATION
# [3] = Test System: AMES SALMONELLA TYPHIMURIUM, Strain/Indicator: TA100, Metabolic Activation: NONE, Method: PREINCUBATION
# [4] = Test System: AMES SALMONELLA TYPHIMURIUM, Strain/Indicator: TA98, Metabolic Activation: RAT, LIVER, S-9, AROCLOR 1254, Method: STANDARD PLATE
# [5] = Test System: AMES SALMONELLA TYPHIMURIUM, Strain/Indicator: TA98, Metabolic Activation: NONE, Method: STANDARD PLATE
# [6] = Test System: UDS RODENT HEPATOCYTES, Strain/Indicator: THY INCORP (NON-S-PHASE), Metabolic Activation: NONE, Method: AUTORADIOGRAPHY
# [7] = Test System: AMES SALMONELLA TYPHIMURIUM, Strain/Indicator: TA100, Metabolic Activation: NONE, Method: STANDARD PLATE
# [8] = Test System: AMES SALMONELLA TYPHIMURIUM, Strain/Indicator: TA100, Metabolic Activation: RAT, LIVER, S-9, AROCLOR 1254, Method: STANDARD PLATE
smiles,measurement,setting,value
CCOc1ccc(NC(N)=O)cc1,mutagenic call,"Test System: AMES SALMONELLA TYPHIMURIUM, Strain/Indicator: TA98, Metabolic Activation: HAMSTER, LIVER, S-9, AROCLOR 1254, Method: PREINCUBATION",inactive; negative
same,mutagenic call,[1],inactive; negative
same,mutagenic call,[2],inactive; negative
same,mutagenic call,"Test System: AMES SALMONELLA TYPHIMURIUM, Strain/Indicator: TA100, Metabolic Activation: HAMSTER, LIVER, S-9, AROCLOR 1254, Method: PREINCUBATION",inactive; negative
same,mutagenic call,[3],inactive; negative
same,mutagenic call,"Test System: AMES SALMONELLA TYPHIMURIUM, Strain/Indicator: TA100, Metabolic Activation: RAT, LIVER, S-9, AROCLOR 1254, Method: PREINCUBATION",inactive; negative
same,mutagenic call,"Test System: AMES SALMONELLA TYPHIMURIUM, Strain/Indicator: TA1535, Metabolic Activation: HAMSTER, LIVER, S-9, AROCLOR 1254, Method: PREINCUBATION",inactive; negative
same,mutagenic call,"Test System: AMES SALMONELLA TYPHIMURIUM, Strain/Indicator: TA1535, Metabolic Activation: NONE, Method: PREINCUBATION",inactive; negative
same,mutagenic call,"Test System: AMES SALMONELLA TYPHIMURIUM, Strain/Indicator: TA1535, Metabolic Activation: RAT, LIVER, S-9, AROCLOR 1254, Method: PREINCUBATION",inactive; negative
same,mutagenic call,"Test System: AMES SALMONELLA TYPHIMURIUM, Strain/Indicator: TA1537, Metabolic Activation: HAMSTER, LIVER, S-9, AROCLOR 1254, Method: PREINCUBATION",inactive; negative
same,mutagenic call,"Test System: AMES SALMONELLA TYPHIMURIUM, Strain/Indicator: TA1537, Metabolic Activation: NONE, Method: PREINCUBATION",inactive; negative
same,mutagenic call,"Test System: AMES SALMONELLA TYPHIMURIUM, Strain/Indicator: TA1537, Metabolic Activation: RAT, LIVER, S-9, AROCLOR 1254, Method: PREINCUBATION",inactive; negative
Cc1cnc2cc(C)c3c(nc(N)n3C)c2n1,mutagenic call,[4],active; positive
Oc1ccccc1-c1nc2ccccc2o1,mutagenic call,[5],inactive; negative
same,mutagenic call,"Test System: AMES SALMONELLA TYPHIMURIUM, Strain/Indicator: TA98, Metabolic Activation: S-9, Method: STANDARD PLATE",inactive; negative
c1ccc(-c2ccnc3c2ccc2c(-c4ccccc4)ccnc23)cc1,mutagenic call,"Test System: Mouse lymphoma, Strain/Indicator: L5178Y (tk+/tk-), Metabolic Activation: None, Method: Suspension/plate",active; positive
same,mutagenic call,"Test System: Mouse lymphoma, Strain/Indicator: L5178Y (tk+/tk-), Metabolic Activation: Rat, Liver, S-9, Aroclor 1254, Method: Suspension/plate",equivocal
CN(C)c1ccc(N=Nc2ccc3ncsc3c2)cc1,mutagenic call,[2],active; positive
same,mutagenic call,"Test System: AMES SALMONELLA TYPHIMURIUM, Strain/Indicator: TA98, Metabolic Activation: RAT, LIVER, S-9, AROCLOR, Method: PREINCUBATION",active; positive
same,mutagenic call,"Test System: AMES SALMONELLA TYPHIMURIUM, Strain/Indicator: TA98, Metabolic Activation: RAT, LIVER, S-9, AROCLOR, Method: STANDARD PLATE",active; positive
same,mutagenic call,"Test System: AMES SALMONELLA TYPHIMURIUM, Strain/Indicator: TA98, Metabolic Activation: RAT, LIVER, S-9, Method: PREINCUBATION",active; positive
same,mutagenic call,"Test System: UDS RAT HEPATOCYTES, Strain/Indicator: THY INCORP, Metabolic Activation: NONE, Method: AUTORADIOGRAPHY",active; positive
same,mutagenic call,"Test System: UDS RAT HEPATOCYTES, Strain/Indicator: THY INCORP, Metabolic Activation: NONE, Method: IN VIVO",active; positive
same,mutagenic call,[6],active; positive
O=S1OC[C@@H]2[C@H](CO1)[C@]1(Cl)C(Cl)=C(Cl)[C@@]2(Cl)C1(Cl)Cl (some centres not stated),mutagenic call,"Test System: AMES SALMONELLA TYPHIMURIUM, Strain/Indicator: TA97, Metabolic Activation: NONE, Method: STANDARD PLATE",inactive; negative
same,mutagenic call,"Test System: AMES SALMONELLA TYPHIMURIUM, Strain/Indicator: TA97, Metabolic Activation: RAT, LIVER, S-9, AROCLOR 1254, Method: STANDARD PLATE",inactive; negative
same,mutagenic call,[5],inactive; negative
same,mutagenic call,[4],inactive; negative
same,mutagenic call,[7],inactive; negative
same,mutagenic call,[8],inactive; negative
same,mutagenic call,"Test System: AMES SALMONELLA TYPHIMURIUM, Strain/Indicator: TA102, Metabolic Activation: NONE, Method: STANDARD PLATE",inactive; negative
same,mutagenic call,"Test System: AMES SALMONELLA TYPHIMURIUM, Strain/Indicator: TA102, Metabolic Activation: RAT, LIVER, S-9, AROCLOR 1254, Method: STANDARD PLATE",inactive; negative
Cc1ccc(N)c([N+](=O)[O-])c1,mutagenic call,[1],inactive; negative
same,mutagenic call,"Test System: AMES SALMONELLA TYPHIMURIUM, Strain/Indicator: TA98, Metabolic Activation: RAT, LIVER, S-9, KANECHLOR 500, Method: PREINCUBATION",inactive; negative
same,mutagenic call,[3],inactive; negative
same,mutagenic call,"Test System: AMES SALMONELLA TYPHIMURIUM, Strain/Indicator: TA100, Metabolic Activation: RAT, LIVER, S-9, KANECHLOR 500, Method: PREINCUBATION",inactive; negative
same,mutagenic call,[6],inactive; negative
CC(=O)N(O)c1ccc(C)cc1,mutagenic call,[5],inactive; negative
same,mutagenic call,[4],inactive; negative
same,mutagenic call,[7],inactive; negative
same,mutagenic call,[8],inactive; negative
COP(=S)(OC)Oc1ccc(N=O)c(C)c1,mutagenic call,[5],active; positive
same,mutagenic call,[4],active; positive
same,mutagenic call,[7],active; positive
same,mutagenic call,[8],active; positive
c1ccc([As+](c2ccccc2)(c2ccccc2)c2ccccc2)cc1,mutagenic call,"Test System: Mouse lymphoma, Strain/Indicator: L5178Y (TK+/TK-), Metabolic Activation: None, Method: Microwell",inactive; negative
c1ccc(-c2cccnc2)nc1,mutagenic call,"Test System: AMES SALMONELLA TYPHIMURIUM, Strain/Indicator: TA97, Metabolic Activation: RAT, LIVER, S-9, PHENOBARBITAL, Method: STANDARD PLATE",active; positive
same,mutagenic call,"Test System: AMES SALMONELLA TYPHIMURIUM, Strain/Indicator: TA97, Metabolic Activation: RAT, LIVER, S-9, SODIUM PHENOBARBITAL, Method: PREINCUBATION",active; positive
same,mutagenic call,"Test System: AMES SALMONELLA TYPHIMURIUM, Strain/Indicator: TA98, Metabolic Activation: RAT, LIVER, S-9, PHENOBARBITAL, Method: STANDARD PLATE",inactive; negative
same,mutagenic call,"Test System: AMES SALMONELLA TYPHIMURIUM, Strain/Indicator: TA100, Metabolic Activation: RAT, LIVER, S-9, PHENOBARBITAL, Method: STANDARD PLATE",inactive; negative
same,mutagenic call,"Test System: AMES SALMONELLA TYPHIMURIUM, Strain/Indicator: TA100, Metabolic Activation: RAT, LIVER, S-9, SODIUM PHENOBARBITAL, Method: PREINCUBATION",active; positive
same,mutagenic call,"Test System: AMES SALMONELLA TYPHIMURIUM, Strain/Indicator: TA1535, Metabolic Activation: RAT, LIVER, S-9, PHENOBARBITAL, Method: STANDARD PLATE",inactive; negative
same,mutagenic call,"Test System: AMES SALMONELLA TYPHIMURIUM, Strain/Indicator: TA1537, Metabolic Activation: RAT, LIVER, S-9, PHENOBARBITAL, Method: STANDARD PLATE",active; positive
same,mutagenic call,"Test System: AMES SALMONELLA TYPHIMURIUM, Strain/Indicator: TA1538, Metabolic Activation: RAT, LIVER, S-9, PHENOBARBITAL, Method: STANDARD PLATE",inactive; negative
CC(=O)Nc1ccc([N+](=O)[O-])cc1,mutagenic call,"Test System: AMES SALMONELLA TYPHIMURIUM, Strain/Indicator: TA98(NR), Metabolic Activation: NONE, Method: STANDARD PLATE",inactive; negative
same,mutagenic call,"Test System: AMES SALMONELLA TYPHIMURIUM, Strain/Indicator: TA98(NR), Metabolic Activation: RAT, LIVER, S-9, AROCLOR 1254, Method: STANDARD PLATE",inactive; negative
same,mutagenic call,[5],inactive; negative
same,mutagenic call,[4],inactive; negative
same,mutagenic call,"Test System: AMES SALMONELLA TYPHIMURIUM, Strain/Indicator: TA1538(NR), Metabolic Activation: NONE, Method: STANDARD PLATE",inactive; negative
same,mutagenic call,"Test System: AMES SALMONELLA TYPHIMURIUM, Strain/Indicator: TA1538(NR), Metabolic Activation: RAT, LIVER, S-9, AROCLOR 1254, Method: STANDARD PLATE",inactive; negative
same,mutagenic call,"Test System: AMES SALMONELLA TYPHIMURIUM, Strain/Indicator: TA1538, Metabolic Activation: NONE, Method: STANDARD PLATE",inactive; negative
same,mutagenic call,"Test System: AMES SALMONELLA TYPHIMURIUM, Strain/Indicator: TA1538, Metabolic Activation: RAT, LIVER, S-9, AROCLOR 1254, Method: STANDARD PLATE",inactive; negative
